According to patent publication US9333199B2, “Methods of treatment of histamine H-4 receptor-related pruritus associated with nerve disorders” (BRIDGE PHARMA, INC., priority 2013, dated 2016):

Tests used:
[1] = test system: histamine-induced pruritus; experiment: Antipruritic activity, histamine-induced pruritus in mice; assay type: in vivo, CD-1 mice; details: for inhibition of pruritus following histamine injections (in words): intradermal histamine, Example 5, JNJ7777120 and desloratadine 20 mg/kg oral
Protocol: Antipruritic effects were tested in vivo in CD-1 mice, females, 10-12 weeks, according to methods known in the art. The hair was clipped over the rostral part of the back at the interscapular level of the mice one day before the dosing. Before the testing, the mice were placed in individual clear plastic cages for at least one hour for acclimation. After fasting for 1.5 hours, the animals were dosed orally with the test article, dissolved in a vehicle consisting of 1% methylcellulose/water, 10 mL/kg body weight. Sixty minutes after the oral dosing, an intradermal injection of histamine (300 nmol in 20 μl phosphate buffered saline (PBS), pH 7.4) was administered. Immediately after the histamine injection, the bouts of scratches were counted for 40 min. Scratching induced by the histamine vehicle PBS served as control.
Norketotifen was tested in escalating doses and in a supramaximal dose of 100 mg/kg.

[2] = Repeat-dose pharmacological and toxicological studies in dogs; assay type: in vivo; details: daily doses up to 20 mg/kg/day
Excerpt: Dogs vomit spontaneously for a variety of benign reasons—to expel unwanted content from their stomach, as a result of gastric irritation or in response to colonic irritation. In recent toxicological studies in dogs of various drugs, including isomeric norketotifen, vomiting occurred in both control groups and drug groups and may have been treatment-related, rather than drug-related. The unexpectedly low systemic toxicity of norketotifen and the isomers thereof is believed to be due to low systemic (plasma) concentrations, caused by the fact that norketotifen and the isomers thereof are not circulating in plasma but are accumulating in the skin, which is the largest organ in the body.

[3] = Sedation in human subjects; assay type: in vivo; details: doses of 5 mg and 10 mg, humans
[4] = test system: histamine-induced pruritus; details: intradermal histamine, humans and mice; not tested in Example 5; cited from earlier work

With `CN1CCN(C(=O)c2cc3cc(Cl)ccc3[nH]2)CC1` [JNJ7777120, reference compound] the “inhibition of pruritus following histamine injections (in words)” value [1] was “potently inhibited”.

For `O=C1Cc2ccccc2C(=C2CCNCC2)c2ccsc21` [Norketotifen, norketotifen], the “sedation or other adverse events, chronic dosing” value [2] was “without causing sedation or other adverse events”, the “inhibition of histamine-induced pruritus at supramaximal dose” value ([1]; 100 mg/kg oral, histamine 300 nmol intradermal, bouts counted 40 min) was “complete inhibition” and the “inhibition of histamine-induced pruritus, escalating doses” value ([1]; escalating oral doses, histamine 300 nmol intradermal) was “dose-dependently inhibiting histamine-induced pruritus”. For the same compound, the “inhibition of pruritus following histamine injections (in words)” value [1] was “potently inhibited” and the “sedation in human subjects” value [3] was “do not produce sedation”.

For `CC(C)(C(=O)O)c1ccc(C(O)CCCN2CCC(C(O)(c3ccccc3)c3ccccc3)CC2)cc1` (stereo not shown) [fexofenadine], the “inhibition of pruritus following histamine injections (in words), general statement” value [4] is listed as “not inhibited”.
